Results published in patent publication US4115482A, “Stereospecific cis- and trans-vinylic phosphorus esters” (priority 1977, dated 1978).

Legend:
two spotted spider mite = experiment: Systemic miticidal action on potted bean plants (soil treatment); assay type: in vivo; settings: 20 ml of aqueous emulsion containing 0.05% of the chemical applied to soil, 5 days
Protocol: For this purpose, a systemic pesticide test on mites was chosen as an example.
Test Method: Potted bean plants were infested with the two spotted spider mite. The soil in the pots was then treated by applying 20 ml of aqueous emulsion containing 0.05% of the chemical. The emulsions were prepared by dissolving the cis- and the trans-compound in acetone and dispersing it in distilled water with Triton X-100. (The emulsifier is an alkylaryl polyether alcohol derived from nonylphenol and ethylene oxide). After the application of the test emulsion, the plants were held for 5 days and then the degree of mite control was rated.

bovine cholinesterase = biological target: T1, bovine cholinesterase (Bos taurus, UniProt P23795); experiment: Cholesterinase placeholder; assay type: biochemical; settings: for Cholinesterase IC50 (50% inhibiting concentration), after oxidation: after oxidation with peracetic acid in benzene (75°, 20 minutes) to the corresponding monothiophosphate, bovine cholinesterase, 35° C., 30 minutes
T1 construct: Ellman test with acetylthiocholine
Protocol: The insecticidal effectiveness of organophosphorus compounds is generally attributed to their inhibition of the cholinesterase enzyme. This inhibiting potency is usually expressed as the concentration of the compound which will reduce the activity of the enzyme by 50%, i.e. […]. The […] values of several cis- and trans-S-propenyl dialkyl dithiophosphates were determined to estimate the relative insecticidal potential of the geometric isomer pairs.
Test Method: To a solution of 0.2 unit of bovine cholinesterase in 2.97 ml of a buffer solution containing 11.15 g of disodium hydrogen phosphate dodecahydrate and 1.81 g of potassium dihydrogen phosphate per liter of water, 0.03 ml of a solution of the dithiophosphate adduct in benzene was added. This mixture was then incubated in a water bath at 35° C. for 30 minutes. One ml of a solution containing 100 mg of 5,5'-dithiobis-(2-nitrobenzoic acid), 100 mg of acetylthiocholine iodide, and 75 ml of the above buffer solution in sufficient water to make 200 ml was then added and the mixture again incubated in a water bath at 35° C. for 30 minutes more. The amount of inhibition of bovine cholinesterase was then determined from the absorbance of this solution at 420 millimicrons. By using a series of solutions of the test chemical at various concentrations in acetone, the concentration needed for 50% inhibition was determined.
The oxidation was carried out with peracetic acid in benzene solution at 75° for 20 minutes. After the removal of the excess peracetic acid, the benzene solution was used for enzyme inhibition as described above.
The median inhibiting concentrations for the cis- and trans-S-propenyl dimethyl and diethyl dithiophosphates are listed in Table II. Data on S-vinyl dimethyl dithiophosphate are also tabulated for comparison.

T1 sequence (P23795 31-613): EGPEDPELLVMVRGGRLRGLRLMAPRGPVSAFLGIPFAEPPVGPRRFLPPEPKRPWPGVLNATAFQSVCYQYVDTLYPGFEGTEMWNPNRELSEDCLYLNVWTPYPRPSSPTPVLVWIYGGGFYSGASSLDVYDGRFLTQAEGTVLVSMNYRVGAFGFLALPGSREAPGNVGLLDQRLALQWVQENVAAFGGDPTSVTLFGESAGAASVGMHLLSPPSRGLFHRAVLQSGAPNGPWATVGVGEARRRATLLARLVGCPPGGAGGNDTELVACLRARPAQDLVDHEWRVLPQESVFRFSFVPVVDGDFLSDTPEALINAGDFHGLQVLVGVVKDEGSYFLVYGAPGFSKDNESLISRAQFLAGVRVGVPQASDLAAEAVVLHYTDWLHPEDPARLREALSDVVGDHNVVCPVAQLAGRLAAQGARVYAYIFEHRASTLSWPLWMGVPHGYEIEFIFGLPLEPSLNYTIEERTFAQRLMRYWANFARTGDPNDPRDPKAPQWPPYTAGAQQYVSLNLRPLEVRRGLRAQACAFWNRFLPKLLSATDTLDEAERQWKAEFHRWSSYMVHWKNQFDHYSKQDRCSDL

Row | SMILES | degree of mite control (systemic) (two spotted spider mite) | Cholinesterase IC50 (50% inhibiting concentration), after oxidation (bovine cholinesterase) | cholinesterase inhibition, comparison in words (bovine cholinesterase; relative inhibiting potency of isomers, oxidized forms and S-vinyl analog)
1 | C/C=C/SP(=S)(OC)OC [Example 4, trans-S-Propenyl O,O'-Dimethyl Dithiophosphate] | completely free from mites and nymphs | 2.8e-08 mol/L | the substitution of the trans-vinylic hydrogen by a methyl group increases the insecticidal potential
2 | C/C=C/SP(=S)(OCC)OCC [Example 1, trans-S-Propenyl O,O'-Diethyl Dithiophosphate] | – | 1.6e-07 mol/L | –
3 | C/C=C\SP(=S)(OCC)OCC [Example 2, cis-Propenyl O,O'-Diethyl Dithiophosphate] | – | 0.00018 mol/L | –
4 | C=CSP(=S)(OC)OC [Reference, S-vinyl dimethyl dithiophosphate, reference compound] | – | 3.1 × 10^ -6 mole/liter | –
5 | C/C=C\SP(=S)(OC)OC [Example 3, cis-Propenyl O,O'-Dimethyl Dithiophosphate] | there were live mites and their nymphs | 4.1e-05 mol/L | –
6 | CC=CSP(=S)(OCC)OCC | – | 4.4e-06 mol/L | –
